In series [1] the test system is NCl-H460 non-small cell lung cancer cells. Description: Alamar Blue cell viability assay, anti-proliferative/cytotoxic activity. The format is cell-based. To be noted: 72 hours incubation, one range stated for all listed Examples, read-out: −log IC50 NCl-H460 (converted). On the procedure:
The anti-proliferative/cytotoxic activity of the compounds described herein, can be tested on NCl-H460 non-small cell lung cancer cells using the Alamar Blue cell viability assay (described in O'Brien et al. Eur J Biochem 267, 5421-5426, 2000). The compounds are dissolved as 20 mM solutions in dimethylsulfoxide (DMSO) and subsequently diluted in semi-logarithmic steps. DMSO dilutions are further diluted 1:100 into Dulbecco's modified Eagle's medium (DMEM) containing 10% fetal calf serum to a final concentration twice as much as the final concentration in the test. NCl-460 cells are seeded into 96 well flat bottom plates at a density of 4000 cells per well in a volume of 50 μl per well. 24 hours after seeding the 50 μl each of the compound dilutions in DMEM medium are added into each well of the 96 Well plate. Each compound dilution is tested as quadruplicates. Wells containing untreated control cells are filled with 50 μl DMEM medium containing 1% DMSO. The cells are then incubated with the substances for 72 hours at 37° C. In a humified atmosphere containing 5% carbon dioxide. To determine the viability of the cells, 10 μl of an Alamar Blue solution (Biosource) are added and the fluorescence is measured at an extinction of 544 nm and an emission of 590 nm. For the calculation of cell viability the emission value from untreated cells is set to 100% viability and the emission rates of treated cells are set in relation to the values of untreated cells. Viabilities are expressed as % values.
The corresponding IC50 values of the compounds for anti-proliferative/cytotoxic activity are determined from the concentration-effect curves.
Representative advantageous IC50 values for anti-proliferation/cytotoxicity determined for the compounds mentioned and numbered as Examples in the examples above follow from the following table A, in which the numbers of the compound correspond to the numbers of the examples.
In general terms: Resazurin is reduced to fluorescent resorufin, in cell work by metabolically active cells.

Usually IC50 stands for the point on the concentration scale where inhibition reaches its midpoint. `CCOC(=O)c1c(-c2cc(C)c(O)c(C)c2)c(C)n2c1-c1cc(OC)c(OC)cc1C(C)C2` (racemic) [Example 2, (6RS)-2-(4-Hydroxy-3,5-dimethyl-phenyl)-8,9-dimethoxy-3,6-dimethyl-5,6-dihydro-pyrrolo[2,1-a]isoquinoline-1-carboxylic acid ethyl ester]: in series [1], the IC50 is 0.398 to 3.16 µM. By melting point is commonly meant the temperature of the solid-liquid transition. As to `CCOC(=O)c1c(-c2cc(C)c(O)c(C)c2)c(C)n2c1-c1cc(OC)c(OC)cc1C(C)(C)C2` [Example 1, 2-(4-hydroxy-3,5-dimethyl-phenyl)-8,9-dimethoxy-3,6,6-trimethyl-5,6-dihydro-pyrrolo[2,1-a]isoquinoline-1-carboxylic acid ethyl ester], the melting point is 200 to 202 °C. Also, the half-maximal inhibitory concentration (IC50) in series [1] is 0.398 to 3.16 µM. Taken in the same sequence, the figures for `CCOC(=O)c1c(-c2cccc(N(C)C)c2)c(C)n2c1-c1cc(OC(F)F)c(OC)cc1CC2` [Example 4, 9-(1,1-Difluoro-methoxy)-2-(3-dimethylamino-phenyl)-8-methoxy-3-methyl-5,6-dihydro-pyrrolo[2,1-a]isoquinoline-1-carboxylic acid ethyl ester] were 107 to 110 °C and 0.398 to 3.16 µM. The corresponding values for `CCOC(=O)c1c(-c2cc(C)c(O)c(C)c2)c(C)n2c1-c1cc(OC(F)F)c(OC)cc1CC2` [Example 5, 9-(1,1-Difluoro-methoxy)-2-(4-hydroxy-3,5-dimethyl-phenyl)-8-methoxy-3-methyl-5,6-dihydro-pyrrolo[2,1-a]isoquinoline-1-carboxylic acid ethyl ester] are 152 to 155 °C and 0.398 to 3.16 µM. For `CCOC(=O)c1c(-c2cc(C)c(O)c(C)c2)c(C)n2c1-c1c(cc(OC)c(OC)c1OC)CC2` [Example 7, 2-(4-Hydroxy-3,5-dimethyl-phenyl)-8,9,10-trimethoxy-3-methyl-5,6-dihydro-pyrrolo[2,1-a]isoquinoline-1-carboxylic acid ethyl ester], the melting point fell in the range of 246 to 251 °C. Turning to `CCOC(=O)c1c(-c2cc(OC)c(OC)c(OC)c2)c(C)n2c1-c1cc(OC)c(OC(F)F)cc1CC2` [Example 8, 8-(1,1-Difluoro-methoxy)-9-methoxy-3-methyl-2-(3,4,5-trimethoxy-phenyl)-5,6-dihydro-pyrrolo[2,1-a]isoquinoline-1-carboxylic acid ethyl ester], the melting point is 155 °C. Regarding `CCOC(=O)c1c(-c2cc(C)c(O)c(C)c2)c(C)n2c1-c1cc(OC)c(OC(F)F)cc1CC2` [Example 9, 8-(1,1-Difluoro-methoxy)-2-(4-hydroxy-3,5-dimethyl-phenyl)-9-methoxy-3-methyl-5,6-dihydro-pyrrolo[2,1-a]isoquinoline-1-carboxylic acid ethyl ester], the melting point lay in the range of 126 to 128 °C. In series [1], the IC50 is 0.398 to 3.16 µM.

`CCOC(=O)c1c(-c2cccc(N(C)C)c2)c(C)n2c1-c1cc(OC)c(OC(F)F)cc1CC2` [Example 10, 8-(1,1-Difluoro-methoxy)-2-(3-dimethylamino-phenyl)-9-methoxy-3-methyl-5,6-dihydro-pyrrolo[2,1-a]isoquinoline-1-carboxylic acid ethyl ester]: in series [1], the 50% inhibitory concentration (IC50) is 0.398 to 3.16 µM.

The compound `CCOC(=O)c1c(-c2cc(OC)c(OC)c(OC)c2)c(C)n2c1-c1cc(Cl)c(OC)cc1CC2` [Example 15, 9-Chloro-8-methoxy-3-methyl-2-(3,4,5-trimethoxy-phenyl)-5,6-dihydro-pyrrolo[2,1-a]isoquinoline-1-carboxylic acid ethyl ester] showed a melting point of 172 to 174 °C. `CCOC(=O)c1c(-c2cccc(N(C)C)c2)c(C)n2c1-c1cc(Cl)c(OC)cc1CC2` [Example 16, 9-Chloro-2-(3-dimethylamino-phenyl)-8-methoxy-3-methyl-5,6-dihydro-pyrrolo[2,1-a]isoquinoline-1-carboxylic acid ethyl ester]: the IC50 in series [1] was 0.398 to 3.16 µM. Compound `CCOC(=O)c1c(-c2cc(C)c(O)c(C)c2)c(C)n2c1-c1cc(OC)c(Cl)cc1CC2` [Example 17, 8-Chloro-2-(4-hydroxy-3,5-dimethyl-phenyl)-9-methoxy-3-methyl-5,6-dihydro-pyrrolo[2,1-a]isoquinoline-1-carboxylic acid ethyl ester] returned a melting point of 167 to 169 °C. `CCOC(=O)c1c(-c2cc(C)c(O)c(C)c2)c(C)n2c1-c1cc(OC)c(OCCOC)cc1CC2` [Example 18, 2-(4-Hydroxy-3,5-dimethyl-phenyl)-9-methoxy-8-(2-methoxy-ethoxy)-3-methyl-5,6-dihydro-pyrrolo[2,1-a]isoquinoline-1-carboxylic acid ethyl ester] gave a melting point of 169 to 171 °C. Besides, in series [1], the concentration for half-maximal inhibition (IC50) is 0.398 to 3.16 µM.

Regarding `CCOC(=O)c1c(-c2cc(OC)c(OC)c(OC)c2)c(C)n2c1-c1cc(OC)c(OCCOC)cc1CC2` [Example 19, 9-Methoxy-8-(2-methoxy-ethoxy)-3-methyl-2-(3,4,5-trimethoxy-phenyl)-5,6-dihydro-pyrrolo[2,1-a]isoquinoline-1-carboxylic acid ethyl ester], the melting point lay in the range of 152 to 154 °C. On to `CCOC(=O)c1c(-c2cccc3ccccc23)c(C)n2c1-c1cc(OC)c(OCCOC)cc1CC2` [Example 20, 9-Methoxy-8-(2-methoxy-ethoxy)-3-methyl-2-naphthalen-1-yl-5,6-dihydro-pyrrolo[2,1-a]isoquinoline-1-carboxylic acid ethyl ester], for which the melting point fell in the range of 126 to 128 °C. In series [1], the IC50 was 0.398 to 3.16 µM. `CCOC(=O)c1c(-c2cc(C)c(O)c(C)c2)c(C)n2c1-c1cc(F)c(OC)cc1CC2` [Example 21, 9-Fluoro-2-(4-hydroxy-3,5-dimethyl-phenyl)-8-methoxy-3-methyl-5,6-dihydro-pyrrolo[2,1-a]isoquinoline-1-carboxylic acid ethyl ester]: the half-inhibitory concentration (IC50) in series [1] was 0.398 to 3.16 µM. `CCOC(=O)c1c(-c2cc(C)c(O)c(C)c2)c(C)n2c1-c1cc(C)c(OC)cc1CC2` [Example 23, 2-(4-Hydroxy-3,5-dimethyl-phenyl)-8-methoxy-3,9-dimethyl-5,6-dihydro-pyrrolo[2,1-a]isoquinoline-1-carboxylic acid ethyl ester] registered a melting point of 179 to 181 °C. On the same count and under the same terms, next, `COc1cc2c(cc1OC)-c1c(C(=O)c3ccccc3)c(-c3cc(C)c(O)c(C)c3)c(C)n1CC2` [Example 26, 1-[2-(4-hydroxy-3,5-dimethyl-phenyl)-8,9-dimethoxy-3-methyl-5,6-dihydro-pyrrolo[2,1-a]isoquinolin-1-yl]-1-phenyl-methanone]: 194 to 196 °C; `COc1cc2c(cc1OC)-c1c(-c3ccccc3)c(-c3cc(C)c(O)c(C)c3)c(C)n1CC2` [Example 27, 4-(8,9-Dimethoxy-3-methyl-1-phenyl-5,6-dihydro-pyrrolo[2,1-a]isoquinolin-2-yl)-2,6-dimethyl-phenol]: 210 to 214 °C. `COc1cc2c(cc1OC)-c1c(C(=O)NC(C)C)c(-c3cc(C)c(O)c(C)c3)c(C)n1CC2` [Example 30, 2-(4-Hydroxy-3,5-dimethyl-phenyl)-8,9-dimethoxy-3-methyl-5,6-dihydro-pyrrolo[2,1-a]isoquinoline-1-carboxylic acid isopropylamide]: the IC50 in series [1] was 0.398 to 3.16 µM. Turning to `COc1cc2c(cc1OC)-c1c(C(=O)N(C)C)c(-c3cc(C)c(O)c(C)c3)c(C)n1CC2` [Example 31, 2-(4-Hydroxy-3,5-dimethyl-phenyl)-8,9-dimethoxy-3-methyl-5,6-dihydro-pyrrolo[2,1-a]isoquinoline-1-carboxylic acid dimethylamide], the melting point was in the range of 259 to 261 °C. The same measure, in the same setting: in the case of `CNC(=O)c1c(-c2cc(C)c(O)c(C)c2)c(C)n2c1-c1cc(OC)c(OC)cc1CC2` [Example 32, 2-(4-Hydroxy-3,5-dimethyl-phenyl)-8,9-dimethoxy-3-methyl-5,6-dihydro-pyrrolo[2,1-a]isoquinoline-1-carboxylic acid methylamide] it was 281 to 283 °C; in that of `COc1cc2c(cc1OC)-c1c(C(N)=O)c(-c3cc(C)c(O)c(C)c3)c(C)n1CC2` [Example 33, 2-(4-Hydroxy-3,5-dimethyl-phenyl)-8,9-dimethoxy-3-methyl-5,6-dihydro-pyrrolo[2,1-a]isoquinoline-1-carboxylic acid amide], 229 to 231 °C; in that of `CCNC(=O)c1c(-c2cc(C)c(O)c(C)c2)c(C)n2c1-c1cc(OC)c(OC)cc1CC2` [Example 35, 2-(4-Hydroxy-3,5-dimethyl-phenyl)-8,9-dimethoxy-3-methyl-5,6-dihydro-pyrrolo[2,1-a]isoquinoline-1-carboxylic acid ethylamide], 242 to 244 °C.

`COc1cc2c(cc1OC)-c1c(C(=O)NC3CC3)c(-c3cc(C)c(O)c(C)c3)c(C)n1CC2` [Example 37, 2-(4-Hydroxy-3,5-dimethyl-phenyl)-8,9-dimethoxy-3-methyl-5,6-dihydro-pyrrolo[2,1-a]isoquinoline-1-carboxylic acid cyclopropylamide] displayed a melting point of 254 to 256 °C.

The values above are taken from US20060148838A1, “Novel pyrrolodihydroisoquinolines useful in the treatment of cancer” (Altana Pharma AG, priority 2003, published 2006).
